Patent US11299496B2, “Ligands for alpha-7 nicotinic acetylcholine receptors and methods of treating neurological and inflammatory conditions” (Northeastern University, priority 2014, dated 2022)

Biological target: T1, human alpha-7 nAChR (Homo sapiens, UniProt P36544)
T1 construct: expressed in transfected cells; host or cells: Xenopus laevis oocytes (cRNA injection)
Assay: Two-electrode voltage clamp of alpha-7 nAChR expressed in Xenopus oocytes (net charge)
Assay type: cell-based
Conditions: area under the curve of current vs. time; for Charge Alone: compound alone acting as an allosteric agonist; for Charge +C: compound together with choline or ACh, includes PAM and ago-PAM activity; call rule not given here
Method: The human alpha-7 nAChR receptor clone was obtained from Dr. Jon Lindstrom {University of Pennsylvania, Philadelphia, Pa.), aid the RIC-3 clone from Dr. Millet Treinin (Hebrew University, Jerusalem, Israel) for the purpose of co-injection with a7 to improve the level and speed of receptor expression (Halevi et al., 2003). After linearization and purification of cloned cDNA's, RNA, transcripts were prepared rising the appropriate mMessage mMachine kit tiom Ambion (Austin, Tex.).
Expression in X, laeivis Oocytes
Oocytes were obtained from mature (>9 cm) female Xenopus laeivis African frogs (Nasco, Ft. Atkinson, Wis.). Frogs were anesthetized in 0.7 g/L solution of ethyl 3-aminobenzoate methanesulfonate buffered with sodium bicarbonate, and oocytes were surgically removed through an abdominal incision. Harvested oocytes were treated with 1.25 mg/ml collagenase (Worthington Biochemicals, Freehold, N.J.) in calcium-free Barth's solution (88 mM NaCl, 1 mM KCl, 2.38 mM NaHCO3, 0.82 mM MgSO4, 15 mM HEPES, 12 mg/L tetracycline, pH 7.6) for 3-4 hours to remove the follicular layer. Stage-5 oocytes were isolated and injected with 50 nL (5-20 ng) of human alpha-7 and RIC-3 cRNA. Suitable levels of receptor expression were typically achieved 2-6 days after injection of cRNA. For experiments involving the PAM 4BP-TQS/GAT-107, where standard levels of expression result in ion currents too large to be recorded in voltage clamp, experiments were typically conducted 1-3 days after RNA injection.
Two-electrode voltage clamp experiments were conducted using OpusXpress6000A (Molecular Devices, Sunnyvale, Calif.), an integrated system that provides automated impalement and voltage clamp of up to eight oocytes in parallel. Both the current and voltage electrodes were filled with 3 M KCl, and oocytes were clamped at a holding potential of −60 mV. Data were collected at 50 Hz and filtered at 20 Hz. The oocytes were bath-perfused with Ringer's solution (115 mM NaCl, 10 mM HEPES, 2.5 mM KCl, 1.8 mM CaCl2, pH 7.3), and agonist solutions were delivered from a 96-well drug plate using disposable tips. Flow rates were set at 2 mL/min, with each drug or control solution delivered in 12 s durations, followed˜by 181 s washouts with Ringer's unless noted otherwise.
Experimental Protocols and Data Analysis
Responses of human alpha-7 receptors to agonists were measured as both peek current and net charge measured over a 120 s period beginning with the compound application (Papke and Papke, 2002). […] In experiments involving positive allosteric modulators (PAMs), the fast desensitization of alpha-7 was eliminated, allowing peak currents to be used as a valid measurement of the receptor-mediated responses (Wang et al., 2012; Williams et al., 2011).
Oocytes received two control ACh applications prior to receiving any drug in order to establish a steady reference response, and they received one or more control ACh applications at the end of all experiments. For experiments involving drug incubation through bath applications, all responses were normalized to the average of two ACh control responses taken immediately prior to the switch of bath solution, for each cell individually. These normalization procedures had the effect of compensating for differing levels of receptor expression among the multiple oocytes used in each experiment. Each experiment was conducted on at least four oocytes, with mean values and standard errors (S.E.M.) calculated from their normalized responses. […]

T1 sequence (P36544 23-502): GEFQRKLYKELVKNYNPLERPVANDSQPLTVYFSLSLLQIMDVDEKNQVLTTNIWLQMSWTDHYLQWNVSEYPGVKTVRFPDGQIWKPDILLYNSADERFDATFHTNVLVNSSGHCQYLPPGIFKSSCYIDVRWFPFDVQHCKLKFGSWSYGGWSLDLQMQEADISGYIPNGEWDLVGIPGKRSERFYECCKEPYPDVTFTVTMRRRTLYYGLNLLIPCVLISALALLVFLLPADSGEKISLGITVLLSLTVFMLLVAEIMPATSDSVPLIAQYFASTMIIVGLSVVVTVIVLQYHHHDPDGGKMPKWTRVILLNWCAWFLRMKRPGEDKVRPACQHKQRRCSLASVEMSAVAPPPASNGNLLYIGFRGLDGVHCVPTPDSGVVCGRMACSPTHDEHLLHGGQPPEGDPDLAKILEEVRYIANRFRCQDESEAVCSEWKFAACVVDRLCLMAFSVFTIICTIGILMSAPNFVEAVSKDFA

Row | Charge Alone | Charge +C | Compound
1 | Inactive | Inactive | CCCNS(=O)(=O)c1ccc2c(c1)[C@H]1C=CC[C@H]1[C@@H](c1ccc(Br)cc1)N2 (stereo in doubt) [Compound 107, 4-(4-bromophenyl)-N-propyl-3a,4,5,9b-tetrahydro-3H-cyclopenta[c]quinoline-8-sulfonamide]
2 | Inactive | Inactive | O=S(=O)(c1ccc2c(c1)[C@H]1C=CC[C@H]1[C@@H](c1ccc(Br)cc1)N2)N1CCCC1 [Compound 57, (3aR,4S,9bS)-4-(4-bromophenyl)-8-(pyrrolidin-1-ylsulfonyl)-3a,4,5,9b-tetrahydro-3H-cyclopenta[c]quinolone]
3 | Inactive | Inactive | NS(=O)(=O)c1ccc2c(c1)C1C=CCC1C(c1ccc(C(=O)O)cc1)N2 (stereo not drawn) [Compound 58, 4-(8-sulfamoyl-3a,4,5,9b-tetrahydro-3H-cyclopenta[c]quinolin-4-yl)benzoic acid]
4 | 1 | 284 | NS(=O)(=O)c1ccc2c(c1)[C@H]1C=CC[C@H]1[C@@H](c1ccc(CCCBr)cc1)N2 [Compound 71, 4-(4-(3-bromopropyl)phenyl)-3a,4,5,9b-tetrahydro-3H-cyclopenta[c]quinoline-8-sulfonamide]
5 |  | 276 | CCOC(=O)Nc1ccc([C@H]2Nc3ccc(S(N)(=O)=O)cc3[C@H]3C=CC[C@H]32)cc1 (stereo in doubt) [Compound 60, ethyl(4-(8-sulfamoyl-3a,4,5,9b-tetrahydro-3H-cyclopenta[c]quinolin-4-yl)phenyl)carbamate]
6 | Inactive | Inactive | O=S(=O)(c1ccc2c(c1)[C@H]1C=CC[C@H]1[C@@H](c1ccc(Br)cc1)N2)N1CCC1 [Compound 54, 8-(azetidin-1-ylsulfonyl)-4-(4-bromophenyl)-3a,4,5,9b-tetrahydro-3H-cyclopenta[c]quinolone]
7 | Inactive | Inactive | CC(C)NS(=O)(=O)c1ccc2c(c1)[C@H]1C=CC[C@H]1[C@@H](c1ccc(Br)cc1)N2 (stereo in doubt) [Compound 100, 4-(4-bromophenyl)-N-isopropyl-3a,4,5,9b-tetrahydro-3H-cyclopenta[c]quinoline-8-sulfonamide]
8 | 0 | 8.4 | NS(=O)(=O)c1ccc([C@H]2Nc3ccc(Br)cc3[C@H]3C=CC[C@H]32)cc1 (stereo in doubt) [Compound 4, 4-(8-bromo-3a,4,5,9b-tetrahydro-3H-cyclopenta[c]quinolin-4-yl)benzenesulfonamide]
9 | Inactive | Inactive | C=C(C)CNS(=O)(=O)c1ccc2c(c1)[C@H]1C=CC[C@H]1[C@@H](c1ccc(Br)cc1)N2 (stereo in doubt) [Compound 108, 4-(4-bromophenyl)-N-(2-methylallyl)-3a,4,5,9b-tetrahydro-3H-cyclopenta[c]quinoline-8-sulfonamide]
10 | Inactive | Inactive | O=S(=O)(NCC1CC1)c1ccc2c(c1)[C@H]1C=CC[C@H]1[C@@H](c1ccc(Br)cc1)N2 (stereo in doubt) [Compound 105, 4-(4-bromophenyl)-N-(cyclopropylmethyl)-3a,4,5,9b-tetrahydro-3H-cyclopenta[c]quinoline-8-sulfonamide]
11 | Inactive | Inactive | CCC(C)CNS(=O)(=O)c1ccc2c(c1)[C@H]1C=CC[C@H]1[C@@H](c1ccc(Br)cc1)N2 (stereo in doubt) [Compound 109, 4-(4-bromophenyl)-N-(2-methylbutyl)-3a,4,5,9b-tetrahydro-3H-cyclopenta[c]quinoline-8-sulfonamide]

Second part, the molecule before the results:

Row | Compound | Charge Alone | Charge +C
12 | NS(=O)(=O)c1ccc2c(c1)[C@H]1C=CC[C@H]1[C@@H](c1ccncc1)N2 (stereo in doubt) [Compound 2, 4-(pyridin-4-yl)-3a,4,5,9b-tetrahydro-3H-cyclopenta[c]quinoline-8-sulfonamide] | Inactive | Inactive
13 | CC(C)OC(=O)Nc1ccc([C@H]2Nc3ccc(S(N)(=O)=O)cc3[C@H]3C=CC[C@H]32)cc1 (stereo in doubt) [Compound 68, isopropyl (4-(8-sulfamoyl-3a,4,5,9b-tetrahydro-3H-cyclopenta[c]quinolin-4-yl)phenyl)carbamate] | 80 | 156
14 | NS(=O)(=O)c1ccc2c(c1)[C@H]1C=CC[C@H]1[C@@H](c1csc(Br)n1)N2 (stereo in doubt) [Compound 85, 4-(2-bromothiazol-4-yl)-3a,4,5,9b-tetrahydro-3H-cyclopenta[c]quinoline-8-sulfonamide] | 10 | 166
15 | COC(=O)Nc1ccc([C@H]2Nc3ccc(S(N)(=O)=O)cc3[C@H]3C=CC[C@H]32)cc1 [Compound 59, methyl(4-(8-sulfamoyl-3a,4,5,9b-tetrahydro-3H-cyclopenta[c]quinolin-4-yl)phenyl)carbamate] |  | 480
16 | N#Cc1ccc([C@H]2Nc3ccc(S(N)(=O)=O)cc3[C@H]3C=CC[C@H]32)s1 [Compound 34, 4-(5-cyanothiophen-2-yl)-3a,4,5,9b-tetrahydro-3H-cyclopenta[c]quinoline-8-sulfonamide] | Insoluble | Insoluble
17 | NS(=O)(=O)c1ccc2c(c1)[C@H]1C=CC[C@H]1[C@@H](c1cccs1)N2 (stereo in doubt) [Compound 17, 4-(thiophen-2-yl)-3a,4,5,9b-tetrahydro-3H-cyclopenta[c]quinoline-8-sulfonamide] | 0.031 | 21.096
18 | NS(=O)(=O)c1ccc2c(c1)[C@H]1C=CC[C@H]1[C@@H](c1c(F)c(F)c(F)c(F)c1F)N2 (stereo in doubt) [Compound 42, 4-(perfluorophenyl)-3a,4,5,9b-tetrahydro-3H-cyclopenta[c]quinoline-8-sulfonamide] |  | 47
19 | NS(=O)(=O)c1ccc([C@H]2Nc3ccc(S(N)(=O)=O)cc3[C@H]3C=CC[C@H]32)cc1 (stereo in doubt) [Compound 28, 4-(4-sulfamoylphenyl)-3a,4,5,9b-tetrahydro-3H-cyclopenta[c]quinoline-8-sulfonamide] |  | 128
20 | NS(=O)(=O)c1ccc2c(c1)[C@H]1C=CC[C@H]1[C@@H](Cc1ccccc1)N2 (stereo in doubt) [Compound 13, 4-benzyl-3a,4,5,9b-tetrahydro-3H-cyclopenta[c]quinoline-8-sulfonamide] |  | 76
21 | NS(=O)(=O)c1ccc2c(c1)[C@H]1C=CC[C@H]1[C@@H](c1ccc(S(F)(F)(F)(F)F)cc1)N2 (stereo in doubt) [Compound 31, 4-(4-(pentafluoro-λ^6-sulfanyl)phenyl)-3a,4,5,9b-tetrahydro-3H-cyclopenta[c]quinoline-8-sulfonamide] | 89 | 206
22 | NS(=O)(=O)c1ccc2c(c1)[C@H]1C=CC[C@H]1[C@@H](c1ccc(N=C=S)cc1)N2 (stereo in doubt) [Compound 26, 4-(4-isothiocyanatophenyl)-3a,4,5,9b-tetrahydro-3H-cyclopenta[c]quinoline-8-sulfonamide] | 0 | 22
23 | NS(=O)(=O)c1ccc2c(c1)[C@H]1C=CC[C@H]1[C@@H](c1cccnc1)N2 [Compound 51, 4-(pyridin-3-yl)-3a,4,5,9b-tetrahydro-3H-cyclopenta[c]quinoline-8-sulfonamide] |  | 10
24 | NS(=O)(=O)c1ccc2c(c1)[C@H]1C=CC[C@H]1[C@@H](C1CCCCC1)N2 (stereo in doubt) [Compound 19, 4-cyclohexyl-3a,4,5,9b-tetrahydro-3H-cyclopenta[c]quinoline-8-sulfonamide] | Inactive | Inactive
